US8450527B2, “Amine derivative compounds for treating ophthalmic diseases and disorders” (Acucela Inc., priority 2007, dated 2013)

biological target: T1, visual cycle isomerase (Bos taurus, UniProt Q28175); assay: In vitro isomerase inhibition assay, bovine RPE microsome membranes; assay type: biochemical; conditions: inhibition of 11-cis retinol formation; values given as ranges
T1 construct: Bovine Retinal Pigment Epithelium (RPE) microsome membranes were the source of a visual cycle isomerase; from tissue; host or cells: bovine retinal pigment epithelium microsome membranes; CRALBP made in E. coli
T1 sequence (Q28175 2-533 limits assumed): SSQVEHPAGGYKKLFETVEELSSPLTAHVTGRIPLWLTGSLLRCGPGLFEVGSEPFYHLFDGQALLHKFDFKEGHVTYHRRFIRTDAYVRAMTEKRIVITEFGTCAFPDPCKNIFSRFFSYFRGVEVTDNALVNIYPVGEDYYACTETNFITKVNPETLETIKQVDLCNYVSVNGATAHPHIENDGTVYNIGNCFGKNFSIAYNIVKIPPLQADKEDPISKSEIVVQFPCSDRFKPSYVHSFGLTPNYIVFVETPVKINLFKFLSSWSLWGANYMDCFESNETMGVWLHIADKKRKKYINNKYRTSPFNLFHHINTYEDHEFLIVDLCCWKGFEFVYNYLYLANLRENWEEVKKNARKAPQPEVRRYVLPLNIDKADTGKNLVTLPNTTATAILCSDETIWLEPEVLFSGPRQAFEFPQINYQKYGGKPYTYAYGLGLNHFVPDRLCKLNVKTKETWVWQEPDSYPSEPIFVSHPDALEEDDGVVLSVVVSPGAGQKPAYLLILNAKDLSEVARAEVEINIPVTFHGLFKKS
Protocol: The capability of amine derivative compounds to inhibit the activity of a visual cycle isomerase was determined
Isomerase inhibition reactions were performed essentially as described (Stecher et al., J. Biol. Chem. 274:8577-85 (1999); see also Golczak et al., Proc. Natl. Acad. Sci. USA 102:8162-67 (2005)). Bovine Retinal Pigment Epithelium (RPE) microsome membranes were the source of a visual cycle isomerase.
Bovine RPE microsome membrane extracts were prepared according to methods described (Golczak et al., Proc. Natl. Acad. Sci. USA 102:8162-67 (2005)) and stored at −80° C. Crude RPE microsome extracts were thawed in a 37° C. water bath, and then immediately placed on ice. 50 ml crude RPE microsomes were placed into a 50 ml Teflon-glass homogenizer (Fisher Scientific, catalog no. 0841416M) on ice, powered by a hand-held DeWalt drill, and homogenized ten times upand down on ice under maximum speed. This process was repeated until the crude RPE microsome solution was homogenized. The homogenate was then subjected to centrifugation (50.2 Ti rotor (Beckman, Fullerton, Calif.), 13,000 RPM; 15360 Rcf) for 15 minutes at 4° C. The supernatant was collected and subjected to centrifugation at 42,000 RPM (160,000 Rcf; 50.2 Ti rotor) for 1 hour at 4° C. The supernatant was removed, and the pellets were suspended in 12 ml (final volume) cold 10 mM MOPS buffer, pH 7.0. The resuspended RPE membranes in 5 ml aliquots were homogenized in a glass-to-glass homogenizer (Fisher Scientific, catalog no.K885500-0021) to high homogeneity. Protein concentration was quantified using the BCA protein assay according to the manufacturer's protocol (Pierce, Rockford, Ill.). The homogenized RPE preparations were stored at −80° C.
Recombinant human apo cellular retinaldehyde-binding protein (CRALBP) was cloned and expressed according to standard methods in the molecular biology art (see Crabb et al., Protein Science 7:746-57 (1998); Crabb et al., J. Biol. Chem. 263:18688-92 (1988)). Briefly, total RNA was prepared from confluent ARPE^19 cells (American Type Culture Collection, Manassas, Va.), cDNA was synthesized using an oligo(dT)12-18 primer, and then DNA encoding CRALBP was amplified by two sequential polymerase chain reactions (see Crabb et al., J. Biol. Chem. 263:18688-92 (1988); Intres, et al., J. Biol. Chem. 269:25411-18 (1994); GenBank Accession No. L34219.1). The PCR product was sub-cloned into pTrcHis2-TOPO TA vector according to the manufacturer's protocol (Invitrogen Inc., Carlsbad, Calif.; catalog no. K4400-01), and then the sequence was confirmed according to standard nucleotide sequencing techniques. Recombinant 6×His-tagged human CRALBP was expressed in One Shot TOP 10 chemically competent E. coli cells (Invitrogen), and the recombinant polypeptide was isolated from E. coli cell lysates by nickel affinity chromatography using nickel (Ni) Sepharose XK16-20 columns for HPLC (Amersham Bioscience, Pittsburgh, Pa.; catalog no.17-5268-O2). The purified 6×His-tagged human CRALBP was dialyzed against 10 mM bis-tris-Propane (BTP) and analyzed by SDS-PAGE. The molecular weight of the recombinant human CRALBP was approximately 39 kDal.
Amine derivative compounds and control compounds were reconstituted in ethanol to 0.1 M. Ten-fold serial dilutions (10^−2, 10^−3, 10^−4, 10^−5, 10^−6 M) in ethanol of each compound were prepared for analysis in the isomerase assay.
The isomerase assay was performed in 10 mM bis-tris-propane (BTP) buffer, pH 7.5, 0.5% BSA (diluted in BTP buffer), 1 mM sodium pyrophosphate, 20 μM all-trans retinol (in ethanol), and 6 μM apo-CRALBP. The test compounds (2 μl) (final 1/15 dilution of serial dilution stocks) were added to the above reaction mixture to which RPE microsomes were added. The same volume of ethanol was added to the control reaction (absence of test compound). Bovine RPE microsomes (9 μl) (see above) were then added, and the mixtures transferred to 37° C. to initiate the reaction (total volume=150 μl). […]

With `Cc1cccc(C)c1CCc1cccc(CCCN)c1` [Example 1, 3-(3-(2,6-dimethylphenethyl)phenyl)propan-1-amine] the IC50 was 1 to 10 µM.

biological target: T2, isomerase (Mus musculus, UniProt Q91ZQ5); assay: In vivo murine isomerase assay (recovery of 11-cis-retinal after photobleaching); set-up: species or system CD-1 (albino) male mice; conditions: CD1 male mice, single oral dose 1 mg/kg, photobleaching 4 h post dosing
T2 construct: The recovery of 11-cis-retinal after bleaching can be used to estimate the activity of isomerase in vivo; from tissue; host or cells: eye (RPE) of living CD-1 albino male mice
T2 sequence (Q91ZQ5 1-533): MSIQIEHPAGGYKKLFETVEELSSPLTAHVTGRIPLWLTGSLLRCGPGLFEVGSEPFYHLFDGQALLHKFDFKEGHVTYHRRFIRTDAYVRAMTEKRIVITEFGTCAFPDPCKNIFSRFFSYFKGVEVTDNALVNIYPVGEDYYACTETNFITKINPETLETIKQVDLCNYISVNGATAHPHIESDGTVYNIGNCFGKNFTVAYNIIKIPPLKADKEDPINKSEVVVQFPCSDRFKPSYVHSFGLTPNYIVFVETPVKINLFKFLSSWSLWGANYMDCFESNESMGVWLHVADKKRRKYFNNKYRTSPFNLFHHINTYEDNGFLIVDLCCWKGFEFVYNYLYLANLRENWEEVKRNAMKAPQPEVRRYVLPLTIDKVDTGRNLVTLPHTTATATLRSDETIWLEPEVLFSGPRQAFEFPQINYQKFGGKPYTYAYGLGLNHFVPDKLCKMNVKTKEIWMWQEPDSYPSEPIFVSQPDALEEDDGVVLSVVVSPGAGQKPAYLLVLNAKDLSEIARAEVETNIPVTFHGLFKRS
Protocol: The capability of amine derivative compounds to inhibit isomerase was determined by an in vivo murine isomerase assay. Brief exposure of the eye to intense light (“photobleaching” of the visual pigment or simply “bleaching”) is known to photo-isomerize almost all 11-cis-retinal in the retina. The recovery of 11-cis-retinal after bleaching can be used to estimate the activity of isomerase in vivo.
Delayed recovery, as represented by lower 11-cis-retinal oxime levels, indicates inhibition of isomerization reaction. Procedures were performed essentially as described by Golczak et al., Proc. Natl. Acad. Sci. USA 102:8162-67 (2005). See also Deigner et al., Science, 244: 968-71 (1989); Gollapalli et al., Biochim Biophys Acta. 1651: 93-101 (2003); Parish, et al., Proc. Natl. Acad. Sci. USA, 14609-13 (1998); Radu, et al., Proc Natl Acad Sci USA 101: 5928-33 (2004).
[…] Mice were orally gavaged with the several of the amine derivative compounds described herein. After 1-48 hours in the dark, the mice were exposed to photobleaching of 5,000 lux of white light for 10 minutes. The mice were allowed to recover 2 hours in the dark. The animals were then sacrificed by carbon dioxide inhalation. Retinoids were extracted from the eye and the regeneration of 11-cis-retinal was assessed at various time intervals.
All steps were performed in darkness with minimal redlight illumination (low light darkroom lights and redfiltered flashlights for spot illumination as needed) (see, e.g., Maeda et al., J. Neurochem 85:944-956, 2003; Van Hooser et al., J Biol Chem 277:19173-82, 2002). After the mice were sacrificed, the eyes were immediately removed and placed in liquid nitrogen for storage.
The eyes were placed in 500 μL of bis-tris propane buffer (10 mM, pH ˜7.3) and 20 μL of 0.8M hydroxylamine (pH˜7.3). The eyes were cut up into small pieces with small iris scissors and then thoroughly homogenized at 30000 rpm with a mechanical homogenizer (Polytron PT 1300 D) in the tube until no visible tissue remained. 500 μL of methanol and 500 μL of heptane were added to each tube. The tubes were attached to a vortexer so that the contents were mixed thoroughly for 15 minutes in room temperature. The organic phase was separated from the aqueous phase by centrifugation for 10 min at 13K rpm, 4° C. 240 μL of the solution from the top layer (organic phase) was removed and transferred to clean 300 μl glass inserts in HPLC vials using glass pipette and the vials were crimped shut tightly.
The samples were analyzed on an Agilent 1100 HPLC system with normal phase column: SILICA (Beckman Coutlier, dp 5 μm, […]). The running method has a flow rate of 1.5 ml/min; solvent components are 15% solvent 1 (1% isopropanol in ethyl acetate), and 85% solvent 2 (100% hexanes). Loading volume for each sample is 100 μl; detection wavelength is 360 nm. The area under the curve for 11-cis retinal oxime was calculated by Agilent Chemstation software and was recorded manually. Data processing was performed using Prizm software.
Positive control mice (no compound administered) were sacrificed fully dark-adapted and the eye retinoids analyzed. Light (bleached) control mice (no compound administered) were sacrificed and retinoids isolated and analyzed immediately after light treatment. The animals were orally gavaged with 1 mg/kg compound, then “photo-bleached” (5000 Lux white light for 10 minutes) at 4, 24 and 48 hours after dosing, and returned to darkness to allow recovery of the 11-cis-retinal content of the eyes. Mice were sacrificed 2 hours after bleaching, eyes were enucleated, and retinoid content was analyzed by HPLC.
A dose response in vivo isomerase inhibition study was performed with several of the amine derivative compounds described herein. Six-week old dark-adapted CD-1 (albino) male mice were orally gavaged with 0.03, 0.1, 0.3, 1 and 3 mg/kg of compound in sterile water as solution, and photobleached 4 hours after dosing. […]

Point of comparison: `NCCCc1cccc(CCC2CCCCC2O)c1` (stereo not shown) [Example 187, 2-(3-(3-aminopropyl)phenethyl)cyclohexanol], “% Inhibition 1 mg/kg 4 h” value 9%. Against it:
- NCCC(O)c1cccc(CCCCCCO)c1 (stereo not shown) [Example 59, 6-(3-(3-amino-1-hydroxypropyl)phenyl)hexan-1-ol] — higher, 14%
- CCCC(O)(CCC)CCc1cccc([C@@H](O)CCN)c1 [Example 70, (S)-4-(3-(3-amino-1-hydroxypropyl)phenethyl)heptan-4-ol] — higher, 100%
- CCCC(O)(CCC)CCc1cccc([C@H](O)CCN)c1 [Example 71, (R)-4-(3-(3-Amino-1-hydroxypropyl)phenethyl)heptan-4-ol] — higher, 67%
- NCCC(O)c1cccc(CCc2ccccc2)c1 (stereo not shown) [Example 85, 3-amino-1-(3-phenethylphenyl)propan-1-ol] — higher, 70%
- CC(C)CCCc1cccc(C(O)CCN)c1 (stereo not shown) [Example 90, 3-amino-1-(3-(4-methylpentyl)phenyl)propan-1-ol] — higher, 84%
- NCCOc1cccc(CCC2CCCCC2O)c1 (stereo not shown) [Example 99, 2-(3-(2-aminoethoxy)phenethyl)cyclohexanol] — higher, 22%
- NCCC(O)c1cccc(CCC2CCCCC2O)c1 (stereo not shown) [Example 100, 2-(3-(3-amino-1-hydroxypropyl)phenethyl)cyclohexanol] — the same, 9%
- CCCC(C)(O)CCc1cccc(C(O)CCN)c1 (stereo not shown) [Example 109, 1-(3-(3-amino-1-hydroxypropyl)phenyl)-3-methylhexan-3-ol] — higher, 79%
- NCCC(O)c1cccc(CCC2CCCCO2)c1 (stereo not shown) [Example 110, 3-amino-1-(3-(2-(tetrahydro-2H-pyran-2-yl)ethyl)phenyl)propan-1-ol] — higher, 61%
- CCC(O)(CC)CCc1cccc(C(O)CCN)c1 (stereo not shown) [Example 113, 1-(3-(3-amino-1-hydroxypropyl)phenyl)-3-ethylpentan-3-ol] — higher, 87%
- CCCC(O)(CCC)CCc1cccc(SCCN)c1 [Example 134, 4-(3-(2-aminoethylthio)phenethyl)heptan-4-ol] — lower, 6%
- CCCC(O)(CCC)CCc1cc(C(O)CCN)ccc1F (stereo not shown) [Example 140, 4-(5-(3-amino-1-hydroxypropyl)-2-fluorophenethyl)heptan-4-ol] — higher, 87%
- NCC#Cc1cccc(CS(=O)(=O)C2CCCCC2)c1 [Example 157, 3-(3-(cyclohexylsulfonylmethyl)phenyl)prop-2-yn-1-amine] — lower, 0%
- NCCOc1cccc(C(=O)NC2CCCCC2)c1 [Example 164, 3-(2-aminoethoxy)-N-cyclohexylbenzamide] — lower, 0%
